Target: Cathepsin S (Homo sapiens, UniProt P25774)
Experiment: Inhibition Assay: 5 μL of a human cathepsin S enzyme (R&D1183-CY-010) was added to a 96-well plate so as to be 20 ng/well. Next, 10-fold dilution of the test compound (a 10 mM DMSO solution) was serially performed with a buffer solution for assay (a solution of 50 mM sodium methoxide, 250 mM sodium chloride and 5 mM dithiothreitol (DTT), adjusted to pH=4.5 with 1 N hydrochloric acid) six times such that the final concentration becomes 0.1 nM to 10 μM then, 20 μL of each of the solutions was added to the wells (the final DMSO concentration was 0.1%), and 25 μL of synthetic substrate VVR-AMC (3211-V manufactured by PEPTIDE […], INC.) was added thereto such that the final concentration becomes 40 μM, thereby starting a enzyme reaction. A fluorescence intensity (an excitation wavelength: 380 nm and a fluorescent wavelength: 460 nm) was measured at 37° C. for 10 minutes immediately after the start of the reaction using a fluorescence spectrophotometer (SPECTRA MAX GEMINI, manu

Sequence of Cathepsin S (P25774 whole entry): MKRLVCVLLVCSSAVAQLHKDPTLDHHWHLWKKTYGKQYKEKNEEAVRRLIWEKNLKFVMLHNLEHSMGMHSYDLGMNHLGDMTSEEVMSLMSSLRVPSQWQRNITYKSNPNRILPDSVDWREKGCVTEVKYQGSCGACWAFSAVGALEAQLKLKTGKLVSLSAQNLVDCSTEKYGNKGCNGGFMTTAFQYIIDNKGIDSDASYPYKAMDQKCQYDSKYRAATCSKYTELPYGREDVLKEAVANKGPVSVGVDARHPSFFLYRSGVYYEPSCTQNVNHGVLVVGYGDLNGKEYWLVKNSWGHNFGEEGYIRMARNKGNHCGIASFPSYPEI

IC50: 2.4 nM
Compound: CN1CCC[C@@H]1C(=O)N1CC[C@@H](OCCOc2ncc(-c3nc(C#N)nc4c3ccn4C)cc2C(F)(F)F)C1

Reference: ChEMBL document CHEMBL3886685, “Nitrogen-containing bicyclic aromatic heterocyclic compound” (2016)
